Experimental data reported in article PMC3399817 (PLoS ONE, 2012).

Tests used:
Experiment in all cases: KINOMEscan
Type in all cases: binding
[1] = biological target: T1, LOK (Homo sapiens, UniProt O94804); details: 1 uM
T1 construct: purchased Ambit KINOMEscan (DiscoverX)
Outline: (§1)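 A binding-competition profile was run with every compound fixed at 1 μM; hits were kinases showing inhibited substrate binding.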

[2] = biological target: T2, INSR (Homo sapiens, UniProt P06213); details: 1 uM
T2 construct: purchased Ambit KINOMEscan (DiscoverX)
Outline: as §1

[3] = biological target: T3, INSRR (Homo sapiens, UniProt P14616); details: 1 uM
T3 construct: purchased Ambit KINOMEscan (DiscoverX)
Outline: as §1

[4] = biological target: T4, NEK7 (Homo sapiens, UniProt Q8TDX7); details: NEK7, 1 uM
T4 construct: purchased Ambit KINOMEscan (DiscoverX)
Outline: as §1

[5] = biological target: T5, NEK2 (Homo sapiens, UniProt P51955); details: NEK2, 1 uM
T5 construct: purchased Ambit KINOMEscan (DiscoverX)
Outline: as §1

[6] = biological target: T6, BTK (Homo sapiens, UniProt Q06187); details: 1 uM
T6 construct: purchased Ambit KINOMEscan (DiscoverX)
Outline: as §1

[7] = biological target: T7, MARK2 (Homo sapiens, UniProt Q7KZI7); details: MARK2, 1 uM
T7 construct: purchased Ambit KINOMEscan (DiscoverX)
Outline: as §1

[8] = biological target: T8, YSK1 (Homo sapiens, UniProt O00506); details: YSK1, 1 uM
T8 construct: purchased Ambit KINOMEscan (DiscoverX)
Outline: as §1

[9] = biological target: T9, ADCK4 (Homo sapiens, UniProt Q96D53); details: ADCK4, 1 uM
T9 construct: purchased Ambit KINOMEscan (DiscoverX)
Outline: as §1

[10] = biological target: T10, KIT(V559D) (Homo sapiens, UniProt P10721, V559D); details: 1 uM
T10 construct: purchased Ambit KINOMEscan (DiscoverX)
Outline: as §1

[11] = biological target: T11, TSSK1B (Homo sapiens, UniProt Q9BXA7); details: 1 uM
T11 construct: purchased Ambit KINOMEscan (DiscoverX)
Outline: as §1

[12] = biological target: T12, TYK2(JH2domain-pseudokinase) (Homo sapiens, UniProt P29597); details: 1 uM
T12 construct: TYK2(JH2domain-pseudokinase); purchased Ambit KINOMEscan (DiscoverX)
Outline: as §1

[13] = biological target: T13, YES (Homo sapiens, UniProt P07947); details: 1 uM
T13 construct: purchased Ambit KINOMEscan (DiscoverX)
Outline: as §1

[14] = biological target: T14, HPK1 (Homo sapiens, UniProt Q92918); details: HPK1, 1 uM
T14 construct: purchased Ambit KINOMEscan (DiscoverX)
Outline: as §1

[15] = biological target: T15, ROS1 (Homo sapiens, UniProt P08922); details: ROS1, 1 uM
T15 construct: purchased Ambit KINOMEscan (DiscoverX)
Outline: as §1

[16] = biological target: T16, CDK8 (Homo sapiens, UniProt P49336); details: CDK8, 1 uM
T16 construct: purchased Ambit KINOMEscan (DiscoverX)
Outline: as §1

[17] = biological target: T17, MARK3 (Homo sapiens, UniProt P27448); details: MARK3, 1 uM
T17 construct: purchased Ambit KINOMEscan (DiscoverX)
Outline: as §1

[18] = biological target: T18, PYK2 (Homo sapiens, UniProt Q14289); details: PYK2, 1 uM
T18 construct: purchased Ambit KINOMEscan (DiscoverX)
Outline: as §1

[19] = biological target: T19, MAK (Homo sapiens, UniProt P20794); details: 1 uM
T19 construct: purchased Ambit KINOMEscan (DiscoverX)
Outline: as §1

[20] = biological target: T20, LCK (Homo sapiens, UniProt P06239); details: 1 uM
T20 construct: purchased Ambit KINOMEscan (DiscoverX)
Outline: as §1

[21] = biological target: T21, ERK1 (Homo sapiens, UniProt P27361); details: ERK1, 1 uM
T21 construct: purchased Ambit KINOMEscan (DiscoverX)
Outline: as §1

[22] = biological target: T22, PCTK2 (Homo sapiens, UniProt Q00537); details: PCTK2, 1 uM
T22 construct: purchased Ambit KINOMEscan (DiscoverX)
Outline: as §1

[23] = biological target: T23, ULK2 (Homo sapiens, UniProt Q8IYT8); details: ULK2, 1 uM
T23 construct: purchased Ambit KINOMEscan (DiscoverX)
Outline: as §1

[24] = biological target: T24, MAP4K4 (Homo sapiens, UniProt O95819); details: MAP4K4, 1 uM
T24 construct: purchased Ambit KINOMEscan (DiscoverX)
Outline: as §1

[25] = biological target: T25, GSK3B (Homo sapiens, UniProt P49841); details: for % binding compared to no inhibitor control: GSK3B, 1 uM
T25 construct: purchased Ambit KINOMEscan (DiscoverX)
Outline: as §1

[26] = biological target: T26, TNK1 (Homo sapiens, UniProt Q13470); details: TNK1, 1 uM
T26 construct: purchased Ambit KINOMEscan (DiscoverX)
Outline: as §1

[27] = biological target: T27, PFTAIRE2 (Homo sapiens, UniProt Q96Q40); details: PFTAIRE2, 1 uM
T27 construct: purchased Ambit KINOMEscan (DiscoverX)
Outline: as §1

[28] = biological target: T28, MET (Homo sapiens, UniProt P08581); details: 1 uM
T28 construct: purchased Ambit KINOMEscan (DiscoverX)
Outline: as §1

[29] = biological target: T29, PIK3CA(E545A) (Homo sapiens, UniProt P42336, E545A); details: 1 uM
T29 construct: purchased Ambit KINOMEscan (DiscoverX)
Outline: as §1

[30] = biological target: T30, MELK (Homo sapiens, UniProt Q14680); details: 1 uM
T30 construct: purchased Ambit KINOMEscan (DiscoverX)
Outline: as §1

[31] = biological target: T31, PDPK1 (Homo sapiens, UniProt O15530); details: PDPK1, 1 uM
T31 construct: purchased Ambit KINOMEscan (DiscoverX)
Outline: as §1

[32] = biological target: T32, ABL1(F317I)-nonphosphorylated (Homo sapiens, UniProt P00519, F317I); details: 1 uM
T32 construct: purchased Ambit KINOMEscan (DiscoverX)
Outline: as §1

[33] = biological target: T33, IKK-beta (Homo sapiens, UniProt O14920); details: 1 uM
T33 construct: purchased Ambit KINOMEscan (DiscoverX)
Outline: as §1

[34] = biological target: T34, MLK3 (Homo sapiens, UniProt Q16584); details: MLK3, 1 uM
T34 construct: purchased Ambit KINOMEscan (DiscoverX)
Outline: as §1

[35] = biological target: T35, RIOK2 (Homo sapiens, UniProt Q9BVS4); details: RIOK2, 1 uM
T35 construct: purchased Ambit KINOMEscan (DiscoverX)
Outline: as §1

[36] = biological target: T36, PIK4CB (Homo sapiens, UniProt Q9UBF8); details: 1 uM
T36 construct: purchased Ambit KINOMEscan (DiscoverX)
Outline: as §1

[37] = biological target: T37, ULK1 (Homo sapiens, UniProt O75385); details: ULK1, 1 uM
T37 construct: purchased Ambit KINOMEscan (DiscoverX)
Outline: as §1

[38] = biological target: T38, FLT1 (Homo sapiens, UniProt P17948); details: FLT1, 1 uM
T38 construct: purchased Ambit KINOMEscan (DiscoverX)
Outline: as §1

[39] = biological target: T39, FGR (Homo sapiens, UniProt P09769); details: 1 uM
T39 construct: purchased Ambit KINOMEscan (DiscoverX)
Outline: as §1

[40] = biological target: T40, ASK1 (Homo sapiens, UniProt Q99683); details: ASK1, 1 uM
T40 construct: purchased Ambit KINOMEscan (DiscoverX)
Outline: as §1

T25 sequence (P49841 whole entry): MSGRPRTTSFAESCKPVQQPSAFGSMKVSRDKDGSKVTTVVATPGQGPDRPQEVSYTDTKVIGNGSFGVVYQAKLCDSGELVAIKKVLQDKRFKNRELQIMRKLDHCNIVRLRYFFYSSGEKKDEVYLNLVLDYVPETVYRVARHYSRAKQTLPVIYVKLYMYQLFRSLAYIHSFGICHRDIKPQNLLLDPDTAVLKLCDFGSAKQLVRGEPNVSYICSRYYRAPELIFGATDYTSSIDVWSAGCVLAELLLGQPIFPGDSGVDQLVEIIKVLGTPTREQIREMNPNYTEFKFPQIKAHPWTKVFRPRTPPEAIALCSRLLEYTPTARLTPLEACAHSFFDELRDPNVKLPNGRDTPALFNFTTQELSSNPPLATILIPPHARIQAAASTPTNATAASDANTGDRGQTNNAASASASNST
T5 sequence (P51955 whole entry): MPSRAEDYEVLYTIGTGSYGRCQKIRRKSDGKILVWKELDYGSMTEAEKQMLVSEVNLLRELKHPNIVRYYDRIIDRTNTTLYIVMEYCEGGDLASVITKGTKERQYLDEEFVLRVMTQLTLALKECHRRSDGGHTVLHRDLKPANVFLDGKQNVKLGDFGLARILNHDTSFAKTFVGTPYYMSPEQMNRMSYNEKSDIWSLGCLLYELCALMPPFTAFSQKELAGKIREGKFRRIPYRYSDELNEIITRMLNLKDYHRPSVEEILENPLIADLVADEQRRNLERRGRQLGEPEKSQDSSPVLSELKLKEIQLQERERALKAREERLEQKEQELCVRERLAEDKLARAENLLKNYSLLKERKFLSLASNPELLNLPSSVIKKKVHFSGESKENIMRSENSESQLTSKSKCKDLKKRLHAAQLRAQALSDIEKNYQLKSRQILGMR
T37 sequence (O75385 whole entry): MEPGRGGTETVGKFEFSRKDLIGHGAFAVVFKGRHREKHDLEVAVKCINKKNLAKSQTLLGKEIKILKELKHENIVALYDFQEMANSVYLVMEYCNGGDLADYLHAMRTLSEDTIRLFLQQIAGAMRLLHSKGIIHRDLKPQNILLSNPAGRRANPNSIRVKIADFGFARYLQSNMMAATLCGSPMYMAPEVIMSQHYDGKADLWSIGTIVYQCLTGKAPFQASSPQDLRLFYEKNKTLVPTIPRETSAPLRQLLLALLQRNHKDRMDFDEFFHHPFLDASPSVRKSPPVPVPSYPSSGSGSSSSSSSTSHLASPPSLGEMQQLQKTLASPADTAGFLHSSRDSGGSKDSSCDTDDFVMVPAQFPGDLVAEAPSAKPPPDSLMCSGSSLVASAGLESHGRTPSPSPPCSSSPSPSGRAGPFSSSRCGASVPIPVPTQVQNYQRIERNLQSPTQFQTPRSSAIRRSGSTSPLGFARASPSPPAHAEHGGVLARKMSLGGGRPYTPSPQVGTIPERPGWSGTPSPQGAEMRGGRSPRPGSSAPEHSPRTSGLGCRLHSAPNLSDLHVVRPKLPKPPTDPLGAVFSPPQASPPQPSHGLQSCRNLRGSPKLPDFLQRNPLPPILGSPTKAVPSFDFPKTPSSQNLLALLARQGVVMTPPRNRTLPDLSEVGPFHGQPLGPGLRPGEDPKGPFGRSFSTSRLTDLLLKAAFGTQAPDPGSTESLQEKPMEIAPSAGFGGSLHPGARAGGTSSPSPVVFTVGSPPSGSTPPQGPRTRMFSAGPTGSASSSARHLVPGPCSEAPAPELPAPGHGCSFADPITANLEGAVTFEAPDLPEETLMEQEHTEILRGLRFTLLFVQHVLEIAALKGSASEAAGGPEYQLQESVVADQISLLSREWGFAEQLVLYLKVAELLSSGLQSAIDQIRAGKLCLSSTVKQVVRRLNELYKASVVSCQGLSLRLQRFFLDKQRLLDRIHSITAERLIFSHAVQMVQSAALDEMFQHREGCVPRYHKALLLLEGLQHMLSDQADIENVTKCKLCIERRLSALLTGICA
T9 sequence (Q96D53 whole entry): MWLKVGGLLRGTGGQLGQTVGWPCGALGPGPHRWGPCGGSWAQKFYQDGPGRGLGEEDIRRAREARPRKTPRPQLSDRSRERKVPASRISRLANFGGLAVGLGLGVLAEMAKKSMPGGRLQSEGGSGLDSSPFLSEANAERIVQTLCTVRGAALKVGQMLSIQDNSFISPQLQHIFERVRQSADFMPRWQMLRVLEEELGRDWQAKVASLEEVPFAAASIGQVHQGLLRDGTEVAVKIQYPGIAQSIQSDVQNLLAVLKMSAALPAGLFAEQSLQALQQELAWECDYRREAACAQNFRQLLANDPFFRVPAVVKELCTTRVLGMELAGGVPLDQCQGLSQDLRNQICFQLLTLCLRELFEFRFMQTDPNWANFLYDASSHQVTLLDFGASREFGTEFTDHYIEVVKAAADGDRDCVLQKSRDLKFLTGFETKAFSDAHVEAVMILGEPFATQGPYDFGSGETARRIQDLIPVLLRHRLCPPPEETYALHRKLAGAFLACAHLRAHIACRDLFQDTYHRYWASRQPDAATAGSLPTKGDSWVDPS
T18 sequence (Q14289 whole entry): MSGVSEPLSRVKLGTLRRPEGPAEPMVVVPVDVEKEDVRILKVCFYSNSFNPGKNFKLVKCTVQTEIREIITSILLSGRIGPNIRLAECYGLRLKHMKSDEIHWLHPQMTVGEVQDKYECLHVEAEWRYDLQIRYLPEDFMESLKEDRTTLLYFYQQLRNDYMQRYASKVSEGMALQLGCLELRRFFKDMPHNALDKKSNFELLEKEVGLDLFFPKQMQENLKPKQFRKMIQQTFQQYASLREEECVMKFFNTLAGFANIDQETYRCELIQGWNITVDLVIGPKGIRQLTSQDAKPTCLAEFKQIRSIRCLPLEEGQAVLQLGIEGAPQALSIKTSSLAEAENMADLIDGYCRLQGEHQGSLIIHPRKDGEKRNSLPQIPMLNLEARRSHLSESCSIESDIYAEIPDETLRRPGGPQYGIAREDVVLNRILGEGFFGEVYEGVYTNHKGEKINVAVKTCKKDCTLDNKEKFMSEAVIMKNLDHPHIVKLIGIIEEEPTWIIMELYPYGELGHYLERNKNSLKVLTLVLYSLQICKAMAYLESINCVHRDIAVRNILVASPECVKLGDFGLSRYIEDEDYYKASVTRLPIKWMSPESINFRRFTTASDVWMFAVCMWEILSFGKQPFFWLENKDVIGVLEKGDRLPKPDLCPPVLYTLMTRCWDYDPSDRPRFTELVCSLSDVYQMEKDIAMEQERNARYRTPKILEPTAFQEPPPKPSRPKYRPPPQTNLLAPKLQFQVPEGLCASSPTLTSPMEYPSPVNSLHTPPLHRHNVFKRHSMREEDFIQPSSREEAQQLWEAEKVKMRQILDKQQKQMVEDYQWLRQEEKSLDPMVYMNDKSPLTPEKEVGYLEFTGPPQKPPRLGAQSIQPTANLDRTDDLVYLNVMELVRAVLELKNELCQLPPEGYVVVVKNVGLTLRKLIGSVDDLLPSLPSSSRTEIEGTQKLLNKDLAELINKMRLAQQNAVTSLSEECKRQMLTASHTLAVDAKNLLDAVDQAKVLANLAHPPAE
T17 sequence (P27448 whole entry): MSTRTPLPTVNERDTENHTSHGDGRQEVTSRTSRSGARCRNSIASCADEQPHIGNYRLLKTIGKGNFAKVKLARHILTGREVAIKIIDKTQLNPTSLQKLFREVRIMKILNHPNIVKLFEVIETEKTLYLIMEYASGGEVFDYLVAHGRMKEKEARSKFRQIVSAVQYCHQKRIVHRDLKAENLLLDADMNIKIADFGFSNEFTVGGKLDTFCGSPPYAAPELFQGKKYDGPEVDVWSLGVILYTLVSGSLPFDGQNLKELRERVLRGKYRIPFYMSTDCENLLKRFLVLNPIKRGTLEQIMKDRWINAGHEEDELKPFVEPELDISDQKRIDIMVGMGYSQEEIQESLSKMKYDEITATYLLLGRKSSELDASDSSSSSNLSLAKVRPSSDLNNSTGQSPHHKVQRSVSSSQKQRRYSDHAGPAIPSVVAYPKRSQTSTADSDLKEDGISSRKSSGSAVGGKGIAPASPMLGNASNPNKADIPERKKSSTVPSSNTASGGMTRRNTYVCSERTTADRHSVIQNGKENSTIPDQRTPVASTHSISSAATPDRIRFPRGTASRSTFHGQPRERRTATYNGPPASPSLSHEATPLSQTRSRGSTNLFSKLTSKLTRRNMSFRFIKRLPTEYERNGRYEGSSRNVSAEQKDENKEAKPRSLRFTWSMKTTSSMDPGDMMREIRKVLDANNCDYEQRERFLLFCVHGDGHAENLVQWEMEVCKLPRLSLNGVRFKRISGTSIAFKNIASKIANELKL
T7 sequence (Q7KZI7 whole entry): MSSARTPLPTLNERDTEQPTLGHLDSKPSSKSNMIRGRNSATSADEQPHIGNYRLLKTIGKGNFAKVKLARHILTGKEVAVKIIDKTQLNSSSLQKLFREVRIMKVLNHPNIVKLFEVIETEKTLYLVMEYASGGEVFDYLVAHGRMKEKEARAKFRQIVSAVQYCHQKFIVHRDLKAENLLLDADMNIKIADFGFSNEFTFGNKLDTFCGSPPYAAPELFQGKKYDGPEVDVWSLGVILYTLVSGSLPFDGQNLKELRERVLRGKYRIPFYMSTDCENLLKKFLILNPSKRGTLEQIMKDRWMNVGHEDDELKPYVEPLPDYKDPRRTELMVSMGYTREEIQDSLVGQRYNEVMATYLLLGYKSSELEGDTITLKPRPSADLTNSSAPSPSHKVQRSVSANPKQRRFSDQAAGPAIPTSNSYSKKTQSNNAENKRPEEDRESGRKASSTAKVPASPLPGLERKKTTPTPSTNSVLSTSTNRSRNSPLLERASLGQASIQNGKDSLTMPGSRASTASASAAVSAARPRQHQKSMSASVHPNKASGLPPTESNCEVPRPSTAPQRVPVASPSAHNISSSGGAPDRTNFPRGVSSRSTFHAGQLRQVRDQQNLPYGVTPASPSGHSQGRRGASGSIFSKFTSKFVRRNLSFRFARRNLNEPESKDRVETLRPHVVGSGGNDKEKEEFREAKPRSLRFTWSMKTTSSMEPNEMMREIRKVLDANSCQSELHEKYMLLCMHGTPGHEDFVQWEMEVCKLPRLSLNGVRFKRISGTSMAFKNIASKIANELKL

COc1ccc(-c2cc3nccn3c(Nc3ncccc3C(N)=O)n2)cc1OC.Cl.Cl [BAY61-3606, 2-[7-(3,4-dimethoxyphenyl)-imidazo [1,2-c]pyrimidin-5-ylamino] nicotinamide dihydrochloride, reference compound]
% binding compared to no inhibitor control [1]: 83% | % binding compared to no inhibitor control [2]: 60% | % binding compared to no inhibitor control [3]: 80% | % binding compared to no inhibitor control [4]: 60% | % binding compared to no inhibitor control [5]: 77% | % binding compared to no inhibitor control [6]: 50% | % binding compared to no inhibitor control [7]: 63% | % binding compared to no inhibitor control [8]: 53% | % binding compared to no inhibitor control [9]: 9.9% | % binding compared to no inhibitor control [10]: 3% | % binding compared to no inhibitor control [11]: 96% | % binding compared to no inhibitor control [12]: 9.2% | % binding compared to no inhibitor control [13]: 96% | % binding compared to no inhibitor control [14]: 43% | % binding compared to no inhibitor control [15]: 45% | % binding compared to no inhibitor control [16]: 62% | % binding compared to no inhibitor control [17]: 100% | % binding compared to no inhibitor control [18]: 94% | % binding compared to no inhibitor control [19]: 68% | % binding compared to no inhibitor control [20]: 87% | % binding compared to no inhibitor control [21]: 100% | % binding compared to no inhibitor control [22]: 100% | % binding compared to no inhibitor control [23]: 69% | % binding compared to no inhibitor control [24]: 94% | % binding compared to no inhibitor control [25]: 39% | % inhibition ATP binding ([25]; GSK3β, KINOMEscan, 1 μM): 61% | % binding compared to no inhibitor control [26]: 82% | % binding compared to no inhibitor control [27]: 85% | % binding compared to no inhibitor control [28]: 100% | % binding compared to no inhibitor control [29]: 90% | % binding compared to no inhibitor control [30]: 87% | % binding compared to no inhibitor control [31]: 99% | % binding compared to no inhibitor control [32]: 100% | % binding compared to no inhibitor control [33]: 37% | % binding compared to no inhibitor control [34]: 77% | % binding compared to no inhibitor control [35]: 4% | % binding compared to no inhibitor control [36]: 24% | % binding compared to no inhibitor control [37]: 97% | % binding compared to no inhibitor control [38]: 100% | % binding compared to no inhibitor control [39]: 80% | % binding compared to no inhibitor control [40]: 100%

COc1ccccc1Nc1nc(-c2ccc(OC)c(OC)c2)cc2nccn12 [BAY derivative 6]
% binding compared to no inhibitor control [1]: 53% | % binding compared to no inhibitor control [2]: 99% | % binding compared to no inhibitor control [3]: 91% | % binding compared to no inhibitor control [4]: 100% | % binding compared to no inhibitor control [5]: 88% | % binding compared to no inhibitor control [6]: 60% | % binding compared to no inhibitor control [7]: 65% | % binding compared to no inhibitor control [8]: 82% | % binding compared to no inhibitor control [9]: 69% | % binding compared to no inhibitor control [10]: 54% | % binding compared to no inhibitor control [11]: 100% | % binding compared to no inhibitor control [12]: 37% | % binding compared to no inhibitor control [13]: 57% | % binding compared to no inhibitor control [14]: 100% | % binding compared to no inhibitor control [15]: 36% | % binding compared to no inhibitor control [16]: 100% | % binding compared to no inhibitor control [17]: 100% | % binding compared to no inhibitor control [18]: 100% | % binding compared to no inhibitor control [19]: 100% | % binding compared to no inhibitor control [20]: 41% | % binding compared to no inhibitor control [21]: 100% | % binding compared to no inhibitor control [22]: 100% | % binding compared to no inhibitor control [23]: 86% | % binding compared to no inhibitor control [24]: 86% | % binding compared to no inhibitor control [25]: 100% | % binding compared to no inhibitor control [26]: 56% | % binding compared to no inhibitor control [27]: 100% | % binding compared to no inhibitor control [28]: 100% | % binding compared to no inhibitor control [29]: 100% | % binding compared to no inhibitor control [30]: 91% | % binding compared to no inhibitor control [31]: 100% | % binding compared to no inhibitor control [32]: 100% | % binding compared to no inhibitor control [33]: 89% | % binding compared to no inhibitor control [34]: 100% | % binding compared to no inhibitor control [35]: 80% | % binding compared to no inhibitor control [36]: 100% | % binding compared to no inhibitor control [37]: 100% | % binding compared to no inhibitor control [38]: 100% | % binding compared to no inhibitor control [39]: 54% | % binding compared to no inhibitor control [40]: 100%
